Target: truncated PI3Kα (p110α/iSH2 p85α) (Homo sapiens (Human), UniProt P42336)
Assay: PI3KA_Act fluorescence polarization kinase assay (Ki)
Type: biochemical
Settings: 1 mM ATP
Summary of the method: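 p110α/iSH2 p85α (0.5 nM) was reacted with 30 μM sonicated PIP2 in 50 mM HEPES pH 7.4, 150 mM NaCl, 5 mM MgCl2, 1 mM DTT and 0.05% CHAPS for 30 min at room temperature, then stopped with EDTA. PIP3 was detected by fluorescence polarization (GST-Grp1 PH domain/TAMRA-PIP3), and Ki came from a Morrison tight-binding fit.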

truncated PI3Kα (p110α/iSH2 p85α), sequence (P42336 whole entry, the tested form may be a part): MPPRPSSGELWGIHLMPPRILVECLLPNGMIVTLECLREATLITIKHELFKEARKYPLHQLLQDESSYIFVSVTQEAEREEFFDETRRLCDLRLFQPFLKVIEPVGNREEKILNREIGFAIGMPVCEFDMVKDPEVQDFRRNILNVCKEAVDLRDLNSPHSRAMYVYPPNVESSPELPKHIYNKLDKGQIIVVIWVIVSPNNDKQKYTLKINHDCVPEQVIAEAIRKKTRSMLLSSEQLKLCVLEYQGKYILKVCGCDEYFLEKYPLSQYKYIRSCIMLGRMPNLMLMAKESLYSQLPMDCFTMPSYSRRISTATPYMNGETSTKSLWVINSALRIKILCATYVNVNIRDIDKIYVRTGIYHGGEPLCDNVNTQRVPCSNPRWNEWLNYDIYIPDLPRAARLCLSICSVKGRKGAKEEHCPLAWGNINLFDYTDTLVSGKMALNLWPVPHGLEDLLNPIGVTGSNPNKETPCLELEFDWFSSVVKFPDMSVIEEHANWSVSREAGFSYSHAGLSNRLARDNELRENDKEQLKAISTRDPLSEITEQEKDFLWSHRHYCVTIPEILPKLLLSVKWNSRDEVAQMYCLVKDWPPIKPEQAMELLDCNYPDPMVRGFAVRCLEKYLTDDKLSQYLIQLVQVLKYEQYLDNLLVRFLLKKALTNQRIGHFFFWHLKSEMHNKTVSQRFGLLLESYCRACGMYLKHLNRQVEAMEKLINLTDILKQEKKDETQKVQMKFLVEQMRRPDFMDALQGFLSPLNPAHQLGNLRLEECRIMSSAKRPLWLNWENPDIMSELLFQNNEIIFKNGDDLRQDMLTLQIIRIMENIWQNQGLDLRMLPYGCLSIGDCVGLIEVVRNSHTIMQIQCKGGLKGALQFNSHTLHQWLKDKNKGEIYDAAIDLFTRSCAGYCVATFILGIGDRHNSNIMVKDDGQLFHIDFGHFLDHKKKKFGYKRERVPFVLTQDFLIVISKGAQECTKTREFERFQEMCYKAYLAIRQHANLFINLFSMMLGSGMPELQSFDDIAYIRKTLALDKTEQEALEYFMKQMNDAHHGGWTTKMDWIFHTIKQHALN

Row | Ki [nM] | SMILES | PI3KA_Act Ki [nM]
1 | 1.08 | CC(C)(C)OC(=O)N1C[C@@H](N2CCc3c(-c4cnc(N)nc4)nc(N4CCOCC4)nc32)[C@@H](F)C1 [Example 408, tert-butyl (3R,4S)-3-[4-(2-aminopyrimidin-5-yl)-2-(morpholin-4-yl)-5,6-dihydro-7H-pyrrolo[2,3-d]pyrimidin-7-yl]-4-fluoropyrrolidine-1-carboxylate] | –
2 | – | CC(C)(C)OC(=O)N1C[C@@H](F)[C@@H](N2CCc3c(-c4cnc(N)nc4)nc(N4CCOCC4)nc32)C1 [Example 409, tert-butyl (3S,4R)-3-[4-(2-aminopyrimidin-5-yl)-2-(morpholin-4-yl)-5,6-dihydro-7H-pyrrolo[2,3-d]pyrimidin-7-yl]-4-fluoropyrrolidine-1-carboxylate] | 0.168
3 | 0.262 | CC[C@@]1(N2CCc3c(-c4cnc(N)nc4)nc(N4CCOCC4)nc32)CCN(C(=O)OC(C)(C)C)C1 [Example 410, tert-butyl (3R)-3-[4-(2-aminopyrimidin-5-yl)-2-(morpholin-4-yl)-5,6-dihydro-7H-pyrrolo[2,3-d]pyrimidin-7-yl]-3-ethylpyrrolidine-1-carboxylate] | –
4 | – | CC[C@]1(N2CCc3c(-c4cnc(N)nc4)nc(N4CCOCC4)nc32)CCN(C(=O)OC(C)(C)C)C1 [Example 411, tert-butyl (3S)-3-[4-(2-aminopyrimidin-5-yl)-2-(morpholin-4-yl)-5,6-dihydro-7H-pyrrolo[2,3-d]pyrimidin-7-yl]-3-ethylpyrrolidine-1-carboxylate] | <0.018
5 | – | CC(C)(N)COC(=O)N1CC[C@](C)(N2CCc3c(-c4cnc(N)nc4)nc(N4CCOCC4)nc32)C1.Cl [Example 412, 2-amino-2-methylpropyl (3S)-3-[4-(2-aminopyrimidin-5-yl)-2-(morpholin-4-yl)-5,6-dihydro-7H-pyrrolo[2,3-d]pyrimidin-7-yl]-3-methylpyrrolidine-1-carboxylate hydrochloride] | <0.018
6 | – | C[C@]1(N2CCc3c(-c4cnc(N)nc4)nc(N4CCOCC4)nc32)CCN(C(=O)OCC2CNC2)C1.Cl [Example 413, azetidin-3-ylmethyl (3S)-3-[4-(2-aminopyrimidin-5-yl)-2-(morpholin-4-yl)-5,6-dihydro-7H-pyrrolo[2,3-d]pyrimidin-7-yl]-3-methylpyrrolidine-1-carboxylate hydrochloride] | <0.018
7 | – | CC1(OC(=O)N2CC[C@](C)(N3CCc4c(-c5cnc(N)nc5)nc(N5CCOCC5)nc43)C2)CNC1.Cl [Example 414, 3-methylazetidin-3-yl (3S)-3-[4-(2-aminopyrimidin-5-yl)-2-(morpholin-4-yl)-5,6-dihydro-7H-pyrrolo[2,3-d]pyrimidin-7-yl]-3-methylpyrrolidine-1-carboxylate hydrochloride] | 0.039
8 | – | C[C@]1(N2CCc3c(-c4cnc(N)nc4)nc(N4CCOCC4)nc32)CCN(C(=O)OC2CNC2)C1.Cl [Example 415, azetidin-3-yl (3S)-3-[4-(2-aminopyrimidin-5-yl)-2-(morpholin-4-yl)-5,6-dihydro-7H-pyrrolo[2,3-d]pyrimidin-7-yl]-3-methylpyrrolidine-1-carboxylate hydrochloride] | <0.018
9 | – | CN1CC[C@@H](OC(=O)N2CC[C@](C)(N3CCc4c(-c5cnc(N)nc5)nc(N5CCOCC5)nc43)C2)C1 [Example 416, (3R)-1-methylpyrrolidin-3-yl (3S)-3-[4-(2-aminopyrimidin-5-yl)-2-(morpholin-4-yl)-5,6-dihydro-7H-pyrrolo[2,3-d]pyrimidin-7-yl]-3-methylpyrrolidine-1-carboxylate] | <0.018
10 | – | CN1CC[C@H](OC(=O)N2CC[C@](C)(N3CCc4c(-c5cnc(N)nc5)nc(N5CCOCC5)nc43)C2)C1 [Example 417, (3S)-1-methylpyrrolidin-3-yl (3S)-3-[4-(2-aminopyrimidin-5-yl)-2-(morpholin-4-yl)-5,6-dihydro-7H-pyrrolo[2,3-d]pyrimidin-7-yl]-3-methylpyrrolidine-1-carboxylate] | <0.018
11 | – | CN1CC[C@](C)(N2CCc3c(-c4cnc(N)nc4)nc(N4CCOCC4)nc32)C1 [Example 418, 5-{7-[(3S)-1,3-dimethylpyrrolidin-3-yl]-2-(morpholin-4-yl)-6,7-dihydro-5H-pyrrolo[2,3-d]pyrimidin-4-yl}pyrimidin-2-amine] | 0.320
12 | – | CN1CC[C@@](C)(N2CCc3c(-c4cnc(N)nc4)nc(N4CCOCC4)nc32)C1 [Example 419, 5-{7-[(3R)-1,3-dimethylpyrrolidin-3-yl]-2-(morpholin-4-yl)-6,7-dihydro-5H-pyrrolo[2,3-d]pyrimidin-4-yl}pyrimidin-2-amine] | 1.990
13 | – | CC(C)N1CC[C@](C)(N2CCc3c(-c4cnc(N)nc4)nc(N4CCOCC4)nc32)C1 [Example 420, 5-{7-[(3S)-3-methyl-1-(propan-2-yl)pyrrolidin-3-yl]-2-(morpholin-4-yl)-6,7-dihydro-5H-pyrrolo[2,3-d]pyrimidin-4-yl}pyrimidin-2-amine] | 0.601
14 | – | C[C@]1(N2CCc3c(-c4cnc(N)nc4)nc(N4CCOCC4)nc32)CCN(CC(F)F)C1 [Example 421, 5-{7-[(3S)-1-(2,2-difluoroethyl)-3-methylpyrrolidin-3-yl]-2-(morpholin-4-yl)-6,7-dihydro-5H-pyrrolo[2,3-d]pyrimidin-4-yl}pyrimidin-2-amine] | 0.071
15 | – | CC(C)(O)CN1CC[C@](C)(N2CCc3c(-c4cnc(N)nc4)nc(N4CCOCC4)nc32)C1 [Example 422, 1-{(3S)-3-[4-(2-aminopyrimidin-5-yl)-2-(morpholin-4-yl)-5,6-dihydro-7H-pyrrolo[2,3-d]pyrimidin-7-yl]-3-methylpyrrolidin-1-yl}-2-methylpropan-2-ol] | 0.415
16 | – | COC(=O)C(C)(C)N1CC[C@](C)(N2CCc3c(-c4cnc(N)nc4)nc(N4CCOCC4)nc32)C1 [Example 423, methyl 2-{(3S)-3-[4-(2-aminopyrimidin-5-yl)-2-(morpholin-4-yl)-5,6-dihydro-7H-pyrrolo[2,3-d]pyrimidin-7-yl]-3-methylpyrrolidin-1-yl}-2-methylpropanoate] | 0.445
17 | – | CC(C)(C(N)=O)N1CC[C@](C)(N2CCc3c(-c4cnc(N)nc4)nc(N4CCOCC4)nc32)C1 [Example 424, 2-{(3S)-3-[4-(2-aminopyrimidin-5-yl)-2-(morpholin-4-yl)-5,6-dihydro-7H-pyrrolo[2,3-d]pyrimidin-7-yl]-3-methylpyrrolidin-1-yl}-2-methylpropanamide] | 0.321
18 | – | C[C@]1(N2CCc3c(-c4cnc(N)nc4)nc(N4CCOCC4)nc32)CCN(C2CCCC2)C1 [Example 425, 5-{7-[(3S)-1-cyclopentyl-3-methylpyrrolidin-3-yl]-2-(morpholin-4-yl)-6,7-dihydro-5H-pyrrolo[2,3-d]pyrimidin-4-yl}pyrimidin-2-amine] | 0.311
19 | – | CC1(N2CCc3c(-c4cnc(N)nc4)nc(N4CCOCC4)nc32)CCNCC1.Cl [Example 430, 5-[7-(4-methylpiperidin-4-yl)-2-(morpholin-4-yl)-6,7-dihydro-5H-pyrrolo[2,3-d]pyrimidin-4-yl]pyrimidin-2-amine hydrochloride] | 0.785
20 | – | CC(C)(C)OC(=O)N1CCC(C)(N2CCc3c(-c4cnc(N)nc4)nc(N4CCOCC4)nc32)CC1 [Example 433, tert-butyl 4-[4-(2-aminopyrimidin-5-yl)-2-(morpholin-4-yl)-5,6-dihydro-7H-pyrrolo[2,3-d]pyrimidin-7-yl]-4-methylpiperidine-1-carboxylate] | 0.024
21 | – | CS(=O)(=O)N1C[C@H]2C[C@@]2(N2CCc3c(-c4cnc(N)nc4)nc(N4CCOCC4)nc32)C1 [Example 436, 5-{7-[(1S,5R)-3-(methylsulfonyl)-3-azabicyclo[3.1.0]hex-1-yl]-2-(morpholin-4-yl)-6,7-dihydro-5H-pyrrolo[2,3-d]pyrimidin-4-yl}pyrimidin-2-amine] | 0.189
22 | – | CS(=O)(=O)N1C[C@@H]2C[C@]2(N2CCc3c(-c4cnc(N)nc4)nc(N4CCOCC4)nc32)C1 [Example 437, 5-{7-[(1R,5S)-3-(methylsulfonyl)-3-azabicyclo[3.1.0]hex-1-yl]-2-(morpholin-4-yl)-6,7-dihydro-5H-pyrrolo[2,3-d]pyrimidin-4-yl}pyrimidin-2-amine] | 0.603
23 | 7.45 | CC(C)(C)OC(=O)N1C[C@@H]2C[C@H]1[C@H]2N1CCc2c(-c3cnc(N)nc3)nc(N3CCOCC3)nc21 [Example 438, tert-butyl (1S,4S,5S)-5-[4-(2-aminopyrimidin-5-yl)-2-(morpholin-4-yl)-5,6-dihydro-7H-pyrrolo[2,3-d]pyrimidin-7-yl]-2-azabicyclo[2.1.1] hexane-2-carboxylate] | –
24 | – | C[C@H]1COCCN1c1nc(-c2cnc(N)nc2)c2c(n1)N([C@H]1C[C@@H](N)C1)CC2.Cl [Example 442, 5-{7-(cis-3-aminocyclobutyl)-2-[(3S)-3-methylmorpholin-4-yl]-6,7-dihydro-5H-pyrrolo[2,3-d]pyrimidin-4-yl}pyrimidin-2-amine hydrochloride] | 1.349
25 | – | C[C@H]1COCCN1c1nc(-c2cnc(N)nc2)c2c(n1)N([C@H]1C[C@H](N)C1)CC2.Cl [Example 443, 5-{7-(trans-3-aminocyclobutyl)-2-[(3S)-3-methylmorpholin-4-yl]-6,7-dihydro-5H-pyrrolo[2,3-d]pyrimidin-4-yl}pyrimidin-2-amine hydrochloride] | 0.944

Row | SMILES | Ki [nM] | PI3KA_Act Ki [nM]
26 | CS(=O)(=O)N1C[C@@H]2C[C@H]1[C@H]2N1CCc2c(-c3cnc(N)nc3)nc(N3CCOCC3)nc21 [Example 441, 5-{7-[(1S,4S,5S)-2-(methylsulfonyl)-2-azabicyclo[2.1.1]hex-5-yl]-2-(morpholin-4-yl)-6,7-dihydro-5H-pyrrolo[2,3-d]pyrimidin-4-yl}pyrimidin-2-amine] | 0.432 | –
